In this assay the target is T1, 5-lipoxygenase (Mus musculus, UniProt P48999).
T1 construct: The supernatant is used as a 5-lipogenase enzyme solution; endogenous in cells
T1 sequence (P48999 1-674): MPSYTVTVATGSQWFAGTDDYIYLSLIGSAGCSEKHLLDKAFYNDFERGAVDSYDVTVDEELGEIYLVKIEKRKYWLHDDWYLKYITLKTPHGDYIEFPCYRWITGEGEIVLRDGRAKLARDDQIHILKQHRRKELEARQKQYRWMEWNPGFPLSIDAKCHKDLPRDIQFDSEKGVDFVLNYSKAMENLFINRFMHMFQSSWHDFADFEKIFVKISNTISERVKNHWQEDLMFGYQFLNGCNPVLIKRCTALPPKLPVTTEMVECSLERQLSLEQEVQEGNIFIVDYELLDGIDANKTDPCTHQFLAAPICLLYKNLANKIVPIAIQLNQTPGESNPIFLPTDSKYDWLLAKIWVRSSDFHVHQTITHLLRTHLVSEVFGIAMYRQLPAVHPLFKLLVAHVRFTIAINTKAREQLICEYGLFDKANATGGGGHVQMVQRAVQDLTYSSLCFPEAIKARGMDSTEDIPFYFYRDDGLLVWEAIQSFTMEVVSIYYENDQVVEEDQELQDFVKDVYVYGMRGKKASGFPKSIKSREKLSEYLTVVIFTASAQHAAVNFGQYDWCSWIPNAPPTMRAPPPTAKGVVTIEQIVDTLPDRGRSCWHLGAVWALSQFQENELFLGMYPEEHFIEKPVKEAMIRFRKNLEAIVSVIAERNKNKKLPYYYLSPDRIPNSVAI
In words: 5-Lipoxygenase-inhibiting Activity (decrease in 5-HETE and LTB4 formed from radiolabelled arachidonic acid, enzyme solution from mouse mastcytoma cells P-815). Type of assay: biochemical. The following applies: 5-HETE and LTB4 formation; mouse mastcytoma P-815 enzyme solution; 37° C., 5 min; pH 7.4; with indomethacin; read-out: 50% Inhibitory concentration IC50. The protocol:
Mouse mastcytoma cells P-815 are diluted in a culture solution, containing 90% Eagle Basic Medium (manufactured by Gibco Laboratories) to 5×10^4 cells/ml. The diluted solution is cultivated with shaking in air at 37° C. for 48 hours. Then, the culture solution is cooled with ice and centrifuged to collect the cells. The cells are suspended in a phosphate buffer solution at pH 7.4 at a concentration of 2×10^7 cells/ml. The suspension is treated in a ultrasonic cell disintegrater and then centrifuged at 10,000 r.p.m. for 10 min. The supernatant is used as a 5-lipogenase enzyme solution. In test tubes are placed 20 μl of radiolabelled arachidonic acid ([…]), indomethacin (2×10^-8 mol) and an amide derivative to be tested, respectively. To each of the test tubes are added 0.45 ml of a phosphate buffer solution, 0.45 ml of the above-prepared suspension, 0.45 ml of the above-prepared enzyme solution and 0.1 ml of 8 mM CaCl2 (calcium chloride). The mixture is reacted at 37° C. for 5 min. After cooled with ice, 60 μl of 1N-HCl (hydrochloric acid is added to the reaction mixture, which is then extracted with 8 ml of ethyl acetate. The extract is concentrated, and the concentrate is developed by spotting on a silica gel thin layer plate (Merck 60F 254). Measurement of the inhibitory activity is made by collecting fractions corresponding to lipoxygenase products 5-HETE (5(s)-hydroxy-6,8,11,14-eicosatetraenic acid) and LTB4 (leucotriene B4) and determining the radioactivity by a liquid scintillation counter. The lipoxygenase inhibiting activity is determined by decrease in the amount of the above-mentioned 5-lipoxygenaseproducts. […] 50% inhibitory concentration or 30% inhibitory concentration as indicated in the table means the concentration of an amide derivative required for reducing the amount of the above-mentioned 5-lipoxygenase products (5-HETE and LTB4) to 50% or 30% of the amount when the amount of 5-HETE and LTB4 produced in the absenced of the amide derivative is 100%.
Consider `COc1cc(/C=C/C(=O)NCCN2CCN(C(c3ccccc3)c3ccc(Cl)cc3)CC2)ccc1O` (centres unmarked) [Example 1, N-(p-chlorobenzhydryl)-N'-[2-{3-(3-methoxy-4-hydroxyphenyl)-2-propenoyl}-aminoethyl]piperazine], for which the IC50 amounted to 500 nM.

As to `COc1cc(/C=C/C(=O)NCCN2CCN(C(c3ccccc3)c3ccccc3)CC2)ccc1O` [Example 2, N-benzhydryl-N'-[2-{3-(3-methoxy-4-β-hydroxyphenyl)-2-propenoyl}aminoethyl]piperazine], the IC50 came to 600 nM.

Turning to `CC/C=C\C/C=C\C/C=C\CCCCCCCC(=O)NCCCCNC(=O)/C=C/c1ccc(O)c(OC)c1` [Example 3, N-[3-(3-methoxy-4-hydroxyphenyl)-2-propenoyl]-N'-[9,12,15-octadecatrienoyl]-1,4-diaminobutan], the IC50 came out at 900 nM.

With `COc1cc(/C=C/C(=O)NCCCCNC(=O)/C=C/c2ccc(O)c(OC)c2)ccc1O` [Example 4, N,N'-bis-{3-(3-methoxy-4-hydroxyphenyl)-2-propenoyl}-1,4-diaminobutane], the IC50 was determined as 2000 nM.

Take `CC(=O)OCc1cnc(C)c(O)c1CNC(=O)/C=C/c1ccc(O)c(O)c1` [Example 5, N-caffeoyl-o-acetylpyridoxane]: the IC50 turned out to be 1000 nM.

As for `CC/C=C\C/C=C\C/C=C\C/C=C\C/C=C\C/C=C\CCC(=O)NCCCCNC(=O)/C=C/c1ccc(O)c(O)c1` [Example 6, N-[3-(3,4-dihydroxyphenyl)-2-propenoyl]-N'-[4,7,10,13,16,19-docosahexaenoyl]1,4-diaminobutane], the IC50 worked out at 60 nM.

With `O=C(/C=C/c1ccc(O)c(O)c1)NCCCCNC(=O)/C=C/c1ccc(O)c(O)c1` [Example 7, N,N'-bis-[(3,4-dihydroxyphenyl)-2-propenoyl]-1,4-diaminobutane], the IC50 stood at 500 nM.

Take `O=C(/C=C/c1ccc(O)c(O)c1)N1CCN(C(c2ccccc2)c2ccccc2)CC1` [Example 8, N-benzhydryl-N'-{(3,4-dihydroxyphenyl)-2-propenoyl}-piperazine]: the IC50 came out at 100 nM.

As for `O=C(/C=C/c1ccc(O)c(O)c1)NCCN1CCN(C(c2ccccc2)c2ccccc2)CC1` [Example 9, N-benzhydryl-N'-[2-{3-(3,4-dihydroxyphenyl)-2-propenoyl}-aminoethyl]piperazine], the IC50 amounted to 100 nM.

For `O=C(/C=C/c1ccc(O)c(O)c1)Nc1cc(Cl)ccc1O` [Example 10, N-{3-(3,4-dihydroxyphenyl)-2-propenoyl}-5-chloro-2-hydroxyaniline], the IC50 stood at 30 nM.

For the molecule `O=C(/C=C/c1ccc(O)c(O)c1)Nc1ccccc1O` [Example 11, N-{3-(3,4-dihydroxyphenyl)-2-propenoyl}-o-aminophenol], the IC50 was 40 nM.

Turning to `O=C(/C=C/c1ccc(O)c(O)c1)NCCN1CCN(C(c2ccccc2)c2ccc(Cl)cc2)CC1` (centres unmarked) [Example 12, N-(p-chlorobenzhydryl)-N'-[2-{3-(3,4-dihydroxyphenyl)-2-propenoyl}aminoethyl]piperazine], the IC50 came out at 80 nM.

On to `COc1cc(/C=C/C=C/C(=O)Nc2ccccc2C(=O)O)ccc1O` [Example 13, N-5-(3-methoxy-4-hydroxyphenyl)-2,4-pentadienoylanthranilic acid], for which the IC50 stood at 600 nM.

As to `COc1cc(/C=C/C=C/C(=O)NCCCCNC(=O)/C=C/C=C/c2ccc(O)c(OC)c2)ccc1O` [Example 14, N,N'-di{5-(3-methoxy-4-hydroxyphenyl)-2,4-pentadienoyl}-1,4-diaminobutane], the IC50 came out at 100 nM.

As to `COc1cc(/C=C/C=C/C(=O)N2CCN(C(c3ccccc3)c3ccccc3)CC2)ccc1O` [Example 15, 1-benzhydryl-4-{5-(3-methoxy-4-hydroxyphenyl)-2,4-pentadienoyl}piperazene], the IC50 turned out to be 90 nM.

As for `COc1cc(/C=C/C=C/C(=O)NCCN2CCN(C(c3ccccc3)c3ccc(Cl)cc3)CC2)ccc1O` (centres unmarked) [Example 16, N-(p-chlorobenzhydryl)-N'-[2-{5-(3-methoxy-4-hydroxyphenyl)-2,4-pentadienoyl}aminoethyl]piperazine], the IC50 turned out to be 60 nM.

For `COc1cc(/C=C/C=C/C(=O)NCc2c(CO)cnc(C)c2O)ccc1O` [Example 17], the IC50 was found to be 4000 nM.

As for `COc1cc(/C=C/C=C/C(=O)NCCCCNC(C)=O)ccc1O` [Example 18, N-{5-(3-methoxy-4-hydroxyphenyl)-2,4-pentadienoyl}-N'-acetyl-1,4-diaminobutane], the IC50 amounted to 6000 nM.

In the case of `CC/C=C\C/C=C\C/C=C\CCCCCCCC(=O)NCCCCNC(=O)/C=C/C=C/c1ccc(O)c(OC)c1` [Example 19, N-{5-(3-methoxy-4-hydroxyphenyl)-2,4-pentadienoyl}-N'-9,12,15-octadecatrienoyl-1,4-diaminobutane], the IC50 was found to be 200 nM.

Turning to `CC(=O)NCCCCNC(=O)/C=C/C=C/c1ccc(O)c(O)c1` [Example 20, N-{5-(3,4-dihydroxyphenyl)-2,4-pentadienoyl}-N'-acetyl-1,4-diaminobutane], the IC50 stood at 1000 nM.

Regarding `O=C(/C=C/C=C/c1ccc(O)c(O)c1)NCCCCNC(=O)/C=C/C=C/c1ccc(O)c(O)c1` [Example 21, N,N'-di[5-(3,4-dihydroxyphenyl)-2,4-pentadienoyl]-1,4-diaminobutane], the IC50 was 30 nM.

Take `CC/C=C\C/C=C\C/C=C\C/C=C\C/C=C\C/C=C\CCC(=O)NCCCCNC(=O)/C=C/C=C/c1ccc(O)c(O)c1` [Example 22, N-5-(3,4-dihydroxyphenyl)-2,4-pentadienoyl-N'-4,7,10,13,16,19-docosahexaenoyl-1,4-diaminobutane]: the IC50 was found to be 40 nM.

Regarding `CC/C=C\C/C=C\C/C=C\CCCCCCCC(=O)NCCCCNC(=O)/C=C/C=C/c1ccc(O)c(O)c1` [Example 23, N-5-(3,4-dihydroxyphenyl)2,4-pentadienoyl-N'-9,12,15-octadecatrienoyl-1,4-diaminobutane], the IC50 is 20 nM.

With `O=C(/C=C/C=C/c1ccc(O)c(O)c1)Nc1ccccc1C(=O)O` [Example 24, N-5-(3,4-dihydroxyphenyl)-2,4-pentadienoylanthranilic acid], the IC50 came out at 100 nM.

On to `O=C(/C=C/C=C/c1ccc(O)c(O)c1)Nc1ccc(O)cc1` [Example 25, N-5-(3,4-dihydroxyphenyl)-2,4-pentadienoylaminophenol], for which the IC50 amounted to 80 nM.

In the case of `O=C(/C=C/C=C/c1ccc(O)c(O)c1)N1CCN(C(c2ccccc2)c2ccccc2)CC1` [Example 26], the IC50 came out at 40 nM.

Take `O=C(/C=C/C=C/c1ccc(O)c(O)c1)NCCN1CCN(C(c2ccccc2)c2ccccc2)CC1` [Example 27, N-benzhydryl-N'-[2-{5-(3,4-dihydroxyphenyl)-2,4-pentadienoyl}aminoethyl]piperazine]: the IC50 turned out to be 7 nM.

On to `O=C(/C=C/C=C/c1ccc(O)c(O)c1)NCCN1CCN(C(c2ccccc2)c2ccc(Cl)cc2)CC1` (centres unmarked) [Example 28], for which the IC50 worked out at 10 nM.

With `COc1cc(/C=C/C(=O)NCCCN2CCN(C(c3ccccc3)c3ccccc3)CC2)ccc1O` [Example 34], the IC50 was found to be 300 nM.

Regarding `COc1cc(/C=C/C(=O)NCCCCNC(=O)c2ccccc2N)ccc1O` [Example 35, N-3-[3-methoxy-4-hydroxy]pyenyl-2-butenoyl-N'-(2-amino)benzoylptolesine], the IC50 is 20000 nM.

For `COc1cc(/C=C/C(=O)NCCN2CCN(C(=O)c3ccccc3N)CC2)ccc1O` [Example 36, N-(o-aminobenzoyl)-N'-[2-[3-[3-methoxy-4-hydroxyphenyl)-2-propenoyl]aminoethyl]piperazine], the IC50 was 200000 nM.

On to `O=C(/C=C/c1ccc(O)c(O)c1)NCCCN1CCN(C(c2ccccc2)c2ccccc2)CC1` [Example 37, N-benzhydryl-N'-[{3-(3,4-dihydroxyphenyl)-2-propenoyl}-aminopropyl]piperazine], for which the IC50 was found to be 30 nM.
